# Measurements as given in patent US11578056B2, “Solid forms comprising (S)-2-(2,6-dioxopiperidin-3-yl)-4-((2-fluoro-4-((3-morpholinoazetidin-1-yl)methyl)benzyl)amino)isoindoline-1,3-dione and salts thereof, and compositions comprising and methods of using the same” (Celgene Corporation, priority 2019, dated 2023).
# Assays:
# Experiment in all cases: Hematological cell line viability/apoptosis flow cytometry assay
# Assay type in all cases: cell-based
# [1] = system: DB cell line; details: 120 h
# Procedure: (§1) Cell Proliferation and Viability Assay Using Hematological Cell Lines: The following exemplary anti-proliferative assay uses exemplary hematological cell lines in the following. The in vitro growth inhibitory activity of Compound 1 described herein was evaluated using a 384-well flow cytometry assay.
# (§2) The cell lines were plated in 384-well flat bottom plates and assessed with increasing concentrations of compound ranging from 0.00015 to 10 μM or dimethyl sulfoxide (DMSO) control. The final concentration of DMSO was 0.1% (v/v). Following the addition of Compound 1 or DMSO and incubation for 120 hours, cell number and cell death were analyzed by flow cytometry (Attune®, Thermo Fisher) using Annexin V and the live-cell impermeant DNA dye, DRAQ7. Phosphatidylserine translocates from the inner layer to the outer layer of the cell membrane early in apoptosis and Annexin V binds to the exposed phosphatidylserine found on the surface of an apoptotic cell. The vital dye DRAQ7 is excluded by intact live cells and only stains cells that have died as a result of apoptosis or necrosis.
# (§3) Flow cytometry data analysis was then performed using the Flow Jo_v10 software to determine the number of viable cells (Annexin V and DRAQ7 double negative staining cells) and percentage of apoptotic cells (Annexin V positive cells) for each condition. The live cell count for every concentration was normalized to the DMSO control (considered as 100%) to calculate the percentage of viable cells remaining after treatment and graphed using GraphPad Prism 7.03. The IC50 (50% inhibitory concentration) and Emax (maximum efficacy achieved) values were then calculated by performing nonlinear regression curve fitting using log(inhibitor) vs. normalized response—variable slope analysis on GraphPad Prism 7.03. Area under the curve (AUC) was calculated by performing area under curve analysis on GraphPad Prism 7.03. Similarly, for apoptosis analysis, the percentage of apoptosis combining both “early” (Annexin V positive and DRAQ7 negative) and “late” apoptosis (Annexin V and DRAQ7 positive) cell gates relative to DMSO was graphed using GraphPad Prism 7.03. The AUC, EC50 (concentration of compound that produces half-maximal apoptosis response) and Ymax (maximal percentage of apoptosis achieved) values from apoptosis curves were calculated by performing area under curve analysis and nonlinear regression curve fitting using log(agonist) vs. normalized response—Variable slope analysis on GraphPad Prism 7.03.
# (§4) Dose-response proliferation curves for the panel of hematological cell lines and non-linear curve-fit regression were used to determine IC50, AUC, and Emax for % viable cells (Emax for viability varies between 100 at low doses and 0 at high doses, which corresponds to inhibition of all viable cells), and dose-response apoptosis curves were used to determine the EC50, AUC, and Ymax for % apoptosis (Ymax for apoptosis varies from 0 at low doses and 100 at higher doses which corresponds to death of all cells). Tumor cells were exposed to serial dilutions (0.00015 to 10 μM) of Compound 1 or dimethyl sulfoxide (DMSO) control for 5 days. Viability and apoptosis for all cell lines was determined by Annexin V/7-aminoactinomycin D (7-AAD) flow cytometry.
# [2] = system: Mino cell line; details: Mino (MCL); 120 h
# Procedure: as §1, §2, §3, §4
# [3] = system: TMD8 cell line; details: TMD8 (DLBCL ABC); 120 h
# Procedure: as §1, §2, §3, §4
# [4] = system: ULA cell line; details: ULA (DLBCL), 120 h
# Procedure: as §1, §2, §3, §4
# [5] = system: WILL-2 cell line; details: WILL-2 (DLBCL), 120 h
# Procedure: as §1, §2, §3, §4
# [6] = system: U-2932 cell line; details: U-2932 (DLBCL ABC); 120 h
# Procedure: as §1, §2, §3, §4
# [7] = system: RIVA cell line; details: RIVA (DLBCL ABC), 120 h
# Procedure: as §1, §2, §3, §4
# [8] = system: RC-K8 cell line; details: RC-K8 (DLBCL ABC); 120 h
# Procedure: as §1, §2, §3, §4
# [9] = system: SU-DHL-16 cell line; details: SU-DHL-16 (DLBCL GCB); 120 h
# Procedure: as §1, §2, §3, §4
# [10] = system: OPM-2 cell line; details: OPM-2 (MM), 120 h
# Procedure: as §1, §2, §3, §4
# [11] = system: NU-DUL-1 cell line; details: NU-DUL-1 (DLBCL ABC); 120 h
# Procedure: as §1, §2, §3, §4
# [12] = system: PGA1 cell line; details: PGA1 (CLL), 120 h
# Procedure: as §1, §2, §3, §4
# [13] = system: KARPAS-1106P cell line; details: KARPAS-1106P (DLBCL PMBL); 120 h
# Procedure: as §1, §2, §3, §4
# [14] = system: NCI-H929 cell line; details: NCI-H929 (MM), 120 h
# Procedure: as §1, §2, §3, §4
# [15] = Homo sapiens, read-out: % Viable Cells IC50
smiles,measurement,setting,value
"O=C1CC[C@H](N2C(=O)c3cccc(NCc4ccc(CN5CC(N6CCOCC6)C5)cc4F)c3C2=O)C(=O)N1 [Compound 1, (S)-2-(2,6-dioxopiperidin-3-yl)-4-((2-fluoro-4-((3-morpholinoazetidin-1-yl)methyl)benzyl)amino)isoindoline-1,3-dione]",% Viable Cells AUC,[1],941.4
same,% Viable Cells Emax,[1],89.46%
same,Apoptosis AUC,[1],80.31
same,Apoptosis Ymax,[1],11.62%
same,IC50,[1]; [15],> 10 µM
same,% Viable Cells AUC,[2],62.67
same,% Viable Cells Emax,[2],5.638%
same,Apoptosis AUC,[2],968.2
same,Apoptosis Ymax,[2],97.04%
same,% Viable Cells AUC,[3],4.187
same,% Viable Cells Emax,[3],0.245%
same,Apoptosis AUC,[3],963.3
same,Apoptosis Ymax,[3],97.2%
same,% Viable Cells AUC,[4],0.5518
same,% Viable Cells Emax,[4],0.02523%
same,Apoptosis AUC,[4],995.3
same,Apoptosis Ymax,[4],99.76%
same,EC50,[4],0.00179 µM
same,IC50,[4]; read-out: % Viable Cells IC50,0.00099 µM
same,% Viable Cells AUC,[5],17.1
same,% Viable Cells Emax,[5],0.03115%
same,Apoptosis AUC,[5],916.9
same,Apoptosis Ymax,[5],99.43%
same,EC50,[5],0.0897 µM
same,IC50,[5]; read-out: % Viable Cells IC50,0.00236 µM
same,% Viable Cells AUC,[6],163.7
same,% Viable Cells Emax,[6],12.8%
same,Apoptosis AUC,[6],212.8
same,Apoptosis Ymax,[6],25.81%
same,% Viable Cells AUC,[7],452.6
same,% Viable Cells Emax,[7],36.65%
same,Apoptosis AUC,[7],242.8
same,Apoptosis Ymax,[7],27.92%
same,EC50,[7],0.0177 µM
same,IC50,[7]; read-out: % Viable Cells IC50,0.114 µM
same,% Viable Cells AUC,[8],115.7
same,% Viable Cells Emax,[8],10.06%
same,Apoptosis AUC,[8],349.2
same,Apoptosis Ymax,[8],26.31%
same,% Viable Cells AUC,[9],149.7
same,% Viable Cells Emax,[9],7.137%
same,Apoptosis AUC,[9],492.6
same,Apoptosis Ymax,[9],60.79%
same,EC50,[10]; Homo sapiens,1.32 µM
same,IC50,[10]; [15],0.0003 µM
same,% Viable Cells AUC,[10],210.5
same,% Viable Cells Emax,[10],6.65%
same,Apoptosis AUC,[10],212.6
same,Apoptosis Ymax,[10],63.00%
same,% Viable Cells AUC,[11],22.12
same,% Viable Cells Emax,[11],0.0228%
same,Apoptosis AUC,[11],962.8
same,Apoptosis Ymax,[11],99.84%
same,% Viable Cells AUC,[12],736.7
same,% Viable Cells Emax,[12],69.21%
same,Apoptosis AUC,[12],48.94
same,Apoptosis Ymax,[12],5.075%
same,EC50,[12],0.122 µM
same,IC50,[12]; read-out: % Viable Cells IC50,> 10 µM
same,% Viable Cells AUC,[13],22.22
same,% Viable Cells Emax,[13],0.1698%
same,Apoptosis AUC,[13],885.2
same,Apoptosis Ymax,[13],97.08%
same,EC50,[14]; Homo sapiens,11.3 µM
same,IC50,[14]; [15],0.0007 µM
same,% Viable Cells AUC,[14],215.5
same,% Viable Cells Emax,[14],6.1%
same,Apoptosis AUC,[14],16.86
same,Apoptosis Ymax,[14],7.00%
